Assay results from patent publication US20250313574A1, “SIALIC ACID DERIVATIVES AND METHODS OF USING SAME” (EISAI R&D MANAGEMENT CO., LTD., priority 2022, published 2025).

Assays:
[1] = target: Recombinant Human Siglec-3/CD33 protein (His-CD33) (Homo sapiens (Human), UniProt P20138); assay: Differential scanning fluorimetry (DSF) thermal shift assay; format: binding
Protocol: In the DSF assay, as the temperature increases, the protein gets gradually unfolded, exposing hydrophobic regions in which a fluorescent dye binds causing the fluorescence signal to increase. The midpoint of the unfolding transitions is called the thermal melt (Tm) or denaturation temperature and the Tm was defined as the peak apex in the derivative curve. Here, the Tm temperature of CD33 in the presence and absence of A-001 at a concentration of 50 μM was examined.
Recombinant Human Siglec-3/CD33 protein was purchased from Acros (catalog no. CD3-H5226) and reagents used in this study are shown in the Table 1 below.
Lyophilized CD33 protein was received in 1 mg aliquots from Acros. The protein was diluted with 2.5 mL of sterile water to a concentration of 400 μg/mL (14.5 μM), aliquoted into 138 μL aliquots and stored as at −20° C. On the day of analysis, the protein was thawed and […] solution was diluted to […] using buffer containing 133 mM NaCl, 133 mM phosphate buffered solution and 13.9× Sypro Orange dye in water in a quantity to cover the amount of samples tested on the day of the analysis.
200 μM stock solutions of A-001 containing 0.2% DMSO in water was supplied by compound management in a 384-well plate format.
Sample matrix were prepared by adding 7.5 μL of the protein buffer stock solution followed by addition of 2.5 μL of the 200 μM compound solutions in 384-well PCR plates to give a final volume of 10 μL per well consisting of 0.5 μM CD33 protein, 100 mM phosphate buffered solution pH 7.4, 100 mM NaCl, 10× SYPRO orange dye and 50 μM compound concentration (final DMSO concentration ˜0.2%). Using the Applied Biosystems® Protein Thermal Shift software (algorithm version 1.3.), the denaturation temperature or thermal melt (Tm) of the unbound and ligand bound CD33 protein was automatically assigned and the difference in thermal melt (ΔTm D) was calculated using the derivative curve by the Protein Thermal Shift software.
Recombinant human CD33 protein (0.5 μM) was incubated under buffered conditions in the presence of SYPRO orange dye, a temperature gradient was applied and a thermogram was produced by monitoring the fluorescence. The Tm was defined as the peak apex in the derivative curve in the study. […] Addition of […] of A-001 (Blue lines) to the CD33 protein induced significant Tm increases (ΔTm D) of 12.2±0.7° C.

[2] = target: Recombinant human CD33 protein (Homo sapiens (Human), UniProt P20138); assay: CD33 competitive binding assay for HTS drug screen (fluorescent multivalent sialic acid probe)
Sequence of Recombinant human CD33 protein (P20138 18-259): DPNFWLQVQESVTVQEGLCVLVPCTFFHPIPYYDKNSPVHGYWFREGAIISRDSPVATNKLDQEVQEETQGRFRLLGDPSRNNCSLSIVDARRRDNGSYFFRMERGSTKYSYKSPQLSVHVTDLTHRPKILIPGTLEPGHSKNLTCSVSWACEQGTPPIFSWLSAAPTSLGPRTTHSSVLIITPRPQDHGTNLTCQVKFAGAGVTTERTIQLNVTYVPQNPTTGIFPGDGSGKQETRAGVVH
Protocol: This is a competitive binding assay that uses recombinant CD33 immobilized to a plate and a fluorescently-labeled multivalent sialic acid analog as a probe. Binding of drug to the site on CD33 to which sialic acid binds is detected by reduced binding of the fluorescent probe. Recombinant human CD33 protein (for example Acro Biosystems cat #CD3-H5257) was added at a concentration of 10 μg/ml in 20 mM acetate buffer (pH5.5) to a black plastic plate (Corning 4510) and allowed to incubate overnight at 4° C. The next day, the wells were washed 3 times with PBS containing 0.02% Tween-20. This was followed by a 30-minute incubation with PBS containing 0.2% Tween-20 and 0.5% BSA to block non-specific binding to the well. This buffer is removed and replaced with 10 μl of the same buffer, which is also used as the assay buffer. The fluorescent multivalent sialic acid probe was prepared as a 4× concentration as follows. A biotinylated sialic acid analog A-375 was mixed with biotin-4-Fluorescein isothiocyanate (biotin-4-FITC) at a 3:1 molar ratio with final concentrations (4× stock) of 60 μM A-375 and 20 μM biotin-4-FITC. After these were mixed, 20 μM of neutravidin was added, which should form complexes consisting of neutravidin, fluorescein and sialic acid with an average complex consisting of 1 neutravidin, 1 FITC and 3 sialic acid analogs. The multimerization of the sialic acid analog is critical to the assay and improves the affinity of the sialic acid analog several orders of magnitude. A test compound, for example A-001, is added at 5 μl to the 10 μl assay buffer already in the well. After a brief incubation, 5 μl of the 4× stock solution of sialic acid complexes was added. The final concentration of the complexes was therefore 5 μM neutravidin, 15 μM A-375 and 5 μM FITC. The plate was incubated at room temperature for 30 mins and then washed with PBS containing 0.2% Tween-20. Binding of the sialic acid complex is very stable, with an off-rate of several days. Bound complex was then detected using a standard plate reader to quantify FITC fluorescence.

[3] = thermal melt shift of 0.5 μM CD33 protein with 50 μM compound

Sequence of Recombinant Human Siglec-3/CD33 protein (His-CD33) (P20138 18-259): as above

Row | Compound | DSF (dTmD) [1, 3] | EC50 [2] | DSF (dTmD) ([1]; difference in thermal melt of CD33 protein (0.5 μM) with 50 μM compound)
1 | COC(=O)[C@@]1(CCN2CCOC[C@@]23CCN(C(=O)OC(C)(C)C)C3)C[C@H](O)[C@@H](NC(C)=O)[C@H]([C@H](O)[C@H](O)CNC(=O)c2cc(C)c(O)c(C)c2)O1 [A-002] | −0.3 |  | 
2 | CC(=O)N[C@H]1[C@H]([C@H](O)[C@H](O)CNC(=O)c2cc(C)c(O)c(C)c2)O[C@@](CCN2C[C@@H](C)OC[C@@]23CCN(C(=O)OC(C)(C)C)C3)(C(=O)O)C[C@@H]1O [A-004] | 9.1 | 98 nM | 
3 | CC(=O)N[C@H]1[C@H]([C@H](O)[C@H](O)CNC(=O)c2cc(C)c(O)c(C)c2)O[C@@](CCN2C[C@H](C)OC[C@@]23CCN(C(=O)OC(C)(C)C)C3)(C(=O)O)C[C@@H]1O [A-005] | 14.1 | 7 nM | 
4 | CC(=O)N[C@H]1[C@H]([C@H](O)[C@H](O)CNC(=O)c2cc(C)c(O)c(C)c2)O[C@@](CCN2CCOCC2(C)CNC(=O)OC(C)(C)C)(C(=O)O)C[C@@H]1O (stereo partly drawn) [A-009] | 6.1 | 2000 nM | 
5 | CC(=O)N[C@H]1[C@H]([C@H](O)[C@H](O)CNC(=O)c2cc(C)c(O)c(C)c2)O[C@@](CCN2CCN(C(C)=O)C[C@@]23CCN(C(=O)OC(C)(C)C)C3)(C(=O)O)C[C@@H]1O [A-014] | 12.3 | 19 nM | 
6 | CC(=O)N[C@H]1[C@H]([C@H](O)[C@H](O)CNC(=O)c2cc(C)c(O)c(C)c2)O[C@@](CCN2CCN(C(C)=O)C[C@]23CCN(C(=O)OC(C)(C)C)C3)(C(=O)O)C[C@@H]1O [A-015] | 3.8 | 3340 nM | 
7 | CC(=O)N[C@H]1[C@H]([C@H](O)[C@H](O)CNC(=O)c2cc(C)c(O)c(C)c2)O[C@@](CCN2CC(=O)N(C)C[C@@]23CCN(C(=O)OC(C)(C)C)C3)(C(=O)O)C[C@@H]1O [A-016] | 9.7 | 34 nM | 
8 | CC(=O)N[C@H]1[C@H]([C@H](O)[C@H](O)CNC(=O)c2cc(C)c(O)c(C)c2)O[C@@](CCN2CCOCC2c2cccnc2)(C(=O)O)C[C@@H]1O (stereo partly drawn) [A-024] | 1.1 | 7940 nM | 
9 | CC(=O)N[C@H]1[C@H]([C@H](O)[C@H](O)CNC(=O)c2cc(C)c(OCCN)c(C)c2)O[C@@](CCN2CCCC[C@@]23CCN(C(=O)OC(C)(C)C)C3)(C(=O)O)C[C@@H]1O [A-027] | 10.4 | 64 nM | 
10 | CC(=O)N[C@H]1[C@H]([C@H](O)[C@H](O)CNC(=O)c2cc(C)c(O)c(C)c2)O[C@@](CCN2CCCC[C@]23CN(C(=O)OC(C)(C)C)C[C@@H]3CO)(C(=O)O)C[C@@H]1O [A-028] | 8.1 | 159 nM | 
11 | CC(=O)N[C@H]1[C@H]([C@H](O)[C@H](O)CNC(=O)c2cc(C)c(O)c(C)c2)O[C@@](CCN2CCCC[C@@]23CN(C(=O)OC(C)(C)C)C[C@H]3CO)(C(=O)O)C[C@@H]1O [A-029] | 2.1 | 9730 nM | 
12 | CC(=O)N[C@H]1[C@H]([C@H](O)[C@H](O)CNC(=O)c2cc(C)c(O)c(C)c2)O[C@@](CCN2CCOC[C@@]23CCN(c2cc(C4CC4)ccn2)C3)(C(=O)O)C[C@@H]1O [A-036] | 12.5 | 16 nM | 
13 | CC(=O)N[C@H]1[C@H]([C@H](O)[C@H](O)CNC(=O)c2cc(C)c(O)c(C)c2)O[C@@](CCN2CCOC[C@@]23CCN(c2ccccn2)C3)(C(=O)O)C[C@@H]1O [A-037] | 9.6 | 39 nM | 
14 | CC(=O)N[C@H]1[C@H]([C@H](O)[C@H](O)CNC(=O)c2cc(C)c(O)c(C)c2)O[C@@](CCN2CCOC[C@@]23CCN(c2cnccn2)C3)(C(=O)O)C[C@@H]1O [A-040] | 6.3 | 363 nM | 
15 | CC(=O)N[C@H]1[C@H]([C@H](O)[C@H](O)CNC(=O)c2cc(C)c(O)c(C)c2)O[C@@](CCN2CCOC[C@@]23CCN(C(=O)NC(C)(C)C)C3)(C(=O)O)C[C@@H]1O [A-042] | 13.3 | 12 nM | 
16 | CC(=O)NC1[C@H]([C@H](O)[C@H](O)CNC(=O)c2cc(C)c(O)c(C)c2)O[C@@](CC(=O)N2CCOC[C@]23CCN(C(=O)OC(C)(C)C)C3)(C(=O)O)C[C@@H]1O (stereo partly drawn) [A-222] |  |  | 9.3 °C

Next, values leading:

Row | DSF (dTmD) [1, 3] | EC50 [2] | DSF (dTmD) ([1]; difference in thermal melt of CD33 protein (0.5 μM) with 50 μM compound) | Compound
17 | 5.12 | 1140 nM |  | CC(=O)N[C@H]1[C@H]([C@H](O)[C@H](O)CNC(=O)c2cc(C)c(O)c(C)c2)O[C@@](CCN2CCOC[C@]23CCN(C(=O)OC(C)(C)C)C3)(C(=O)O)C[C@@H]1O [A-003]
18 | 13.5 | 15 nM |  | CC(=O)N[C@H]1[C@H]([C@H](O)[C@H](O)CNC(=O)c2cc(C)c(O)c(C)c2)O[C@@](CCN2CCN(C)C[C@@]23CCN(C(=O)OC(C)(C)C)C3)(C(=O)O)C[C@@H]1O [A-010]
19 | 3.9 | 1630 nM |  | CC(=O)N[C@H]1[C@H]([C@H](O)[C@H](O)CNC(=O)c2cc(C)c(O)c(C)c2)O[C@@](CCN2CCN(C)C[C@]23CCN(C(=O)OC(C)(C)C)C3)(C(=O)O)C[C@@H]1O [A-011]
20 | 12.6 | 22 nM |  | CC(=O)N[C@H]1[C@H]([C@H](O)[C@H](O)CNC(=O)c2cc(C)c(O)c(C)c2)O[C@@](CCN2CCNC[C@@]23CCN(C(=O)OC(C)(C)C)C3)(C(=O)O)C[C@@H]1O [A-012]
21 | 11.4 | 35 nM |  | CC(=O)N[C@H]1[C@H]([C@H](O)[C@H](O)CNC(=O)c2cc(C)c(O)c(C)c2)O[C@@](CCN2CCNC[C@]23CCN(C(=O)OC(C)(C)C)C3)(C(=O)O)C[C@@H]1O [A-013]
22 | 1.2 | 1560 nM |  | CC(=O)N[C@H]1[C@H]([C@H](O)[C@H](O)CNC(=O)c2cc(C)c(O)c(C)c2)O[C@@](CCN2CCCC23CN(C(=O)OC(C)(C)C)C3)(C(=O)O)C[C@@H]1O [A-017]
23 | 10.0 | 115 nM |  | CC(=O)N[C@H]1[C@H]([C@H](O)[C@H](O)CNC(=O)c2cc(C)c(O)c(C)c2)O[C@@](CCN2C(C)CCC23CCN(C(=O)OC(C)(C)C)C3)(C(=O)O)C[C@@H]1O (stereo partly drawn) [A-025]
24 | 9.2 | 830 nM |  | CC(=O)N[C@H]1[C@H]([C@H](O)[C@H](O)CNC(=O)c2cc(C)c(O)c(C)c2)O[C@@](CCNC2(C)CCN(C(=O)OC(C)(C)C)C2)(C(=O)O)C[C@@H]1O (stereo partly drawn) [A-026]
25 | 8.4 | 181 nM |  | C=CC[C@@]1(NCC[C@]2(C(=O)O)C[C@H](O)[C@@H](NC(C)=O)[C@H]([C@H](O)[C@H](O)CNC(=O)c3cc(C)c(O)c(C)c3)O2)CCN(C(=O)OC(C)(C)C)C1 [A-032]
26 | 6.1 | 1610 nM |  | C=CC[C@]1(NCC[C@]2(C(=O)O)C[C@H](O)[C@@H](NC(C)=O)[C@H]([C@H](O)[C@H](O)CNC(=O)c3cc(C)c(O)c(C)c3)O2)CCN(C(=O)OC(C)(C)C)C1 [A-033]
27 | 6.7 | 880 nM |  | C=C[C@H]1CN(C(=O)OC(C)(C)C)C[C@@]1(C)NCC[C@]1(C(=O)O)C[C@H](O)[C@@H](NC(C)=O)[C@H]([C@H](O)[C@H](O)CNC(=O)c2cc(C)c(O)c(C)c2)O1 [A-034]
28 | 7.4 | 413 nM |  | C=C[C@@H]1CN(C(=O)OC(C)(C)C)C[C@]1(C)NCC[C@]1(C(=O)O)C[C@H](O)[C@@H](NC(C)=O)[C@H]([C@H](O)[C@H](O)CNC(=O)c2cc(C)c(O)c(C)c2)O1 [A-035]
